According to patent US8796268B2, “Heteroaryls and uses thereof” (Millennium Pharmaceuticals, Inc., priority 2010, dated 2014):

Tests used:
Type in all cases: biochemical
[1] = target: T1, Human PI3K alpha (Homo sapiens, UniProt P42336); assay: Human PI3K alpha enzyme assay (HTRF); details: concentration not given, b1387 states 1.1 μM for PI3K α and β; for inhibition at 1.1 µM: read-out: p110 alpha Percent Inhibition
T1 construct: His (N); host or cells: SF9 insect cells (baculovirus)

[2] = target: T2, Human PI3K delta (Homo sapiens, UniProt O00329); assay: Human PI3K delta enzyme assay (HTRF); details: concentration not given, b1389 states 1.0 μM for PI3K δ and γ; for inhibition at 1 µM: read-out: p110 delta Percent Inhibition
T2 construct: His (N); host or cells: SF9 insect cells (baculovirus)
T2 sequence (O00329 whole entry): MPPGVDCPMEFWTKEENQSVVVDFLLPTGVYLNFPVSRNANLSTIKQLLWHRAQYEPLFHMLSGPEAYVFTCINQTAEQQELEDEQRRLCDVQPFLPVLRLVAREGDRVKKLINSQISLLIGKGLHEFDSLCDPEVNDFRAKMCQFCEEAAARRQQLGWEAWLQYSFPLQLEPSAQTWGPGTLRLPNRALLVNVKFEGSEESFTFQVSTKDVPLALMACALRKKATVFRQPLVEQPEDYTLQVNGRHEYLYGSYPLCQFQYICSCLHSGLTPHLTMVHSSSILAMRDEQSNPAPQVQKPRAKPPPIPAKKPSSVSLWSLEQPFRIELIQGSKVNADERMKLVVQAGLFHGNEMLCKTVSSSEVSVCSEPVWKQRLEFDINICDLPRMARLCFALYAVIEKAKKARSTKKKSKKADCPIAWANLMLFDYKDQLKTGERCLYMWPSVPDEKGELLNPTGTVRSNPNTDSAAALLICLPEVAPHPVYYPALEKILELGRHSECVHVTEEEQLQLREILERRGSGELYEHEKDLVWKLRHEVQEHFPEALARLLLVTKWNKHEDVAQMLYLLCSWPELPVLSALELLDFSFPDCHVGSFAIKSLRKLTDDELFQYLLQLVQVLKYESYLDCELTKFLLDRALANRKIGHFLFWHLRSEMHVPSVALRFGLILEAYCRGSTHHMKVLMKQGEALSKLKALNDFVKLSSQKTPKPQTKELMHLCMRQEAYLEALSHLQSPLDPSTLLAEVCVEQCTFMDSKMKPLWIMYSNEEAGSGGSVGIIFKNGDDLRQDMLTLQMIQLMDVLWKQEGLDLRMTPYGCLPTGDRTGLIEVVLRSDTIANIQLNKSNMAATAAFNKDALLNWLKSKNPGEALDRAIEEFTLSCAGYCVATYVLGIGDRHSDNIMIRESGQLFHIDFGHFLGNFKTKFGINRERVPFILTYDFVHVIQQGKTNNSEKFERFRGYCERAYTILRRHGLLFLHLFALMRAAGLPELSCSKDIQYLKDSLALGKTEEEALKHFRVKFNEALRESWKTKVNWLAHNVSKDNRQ
T2 sequence (P27986 whole entry partner): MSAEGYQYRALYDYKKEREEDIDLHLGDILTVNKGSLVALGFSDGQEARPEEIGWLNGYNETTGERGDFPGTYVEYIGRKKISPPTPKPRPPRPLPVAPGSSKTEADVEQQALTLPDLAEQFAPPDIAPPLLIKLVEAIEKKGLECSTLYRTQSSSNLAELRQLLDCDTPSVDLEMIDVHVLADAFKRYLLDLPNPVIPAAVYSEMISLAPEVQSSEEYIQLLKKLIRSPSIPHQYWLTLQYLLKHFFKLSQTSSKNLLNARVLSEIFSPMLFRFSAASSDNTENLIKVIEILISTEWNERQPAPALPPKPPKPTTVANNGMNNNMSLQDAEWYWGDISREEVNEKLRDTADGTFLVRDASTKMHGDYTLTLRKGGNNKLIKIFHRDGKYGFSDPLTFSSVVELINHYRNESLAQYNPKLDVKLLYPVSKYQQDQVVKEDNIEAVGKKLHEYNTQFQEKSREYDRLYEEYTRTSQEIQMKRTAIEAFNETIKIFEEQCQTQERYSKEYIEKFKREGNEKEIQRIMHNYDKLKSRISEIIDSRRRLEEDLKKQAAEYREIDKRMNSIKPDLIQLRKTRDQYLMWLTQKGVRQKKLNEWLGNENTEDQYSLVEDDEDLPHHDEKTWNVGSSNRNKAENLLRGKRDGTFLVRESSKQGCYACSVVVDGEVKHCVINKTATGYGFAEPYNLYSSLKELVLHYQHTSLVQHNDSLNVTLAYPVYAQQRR
How it was run: (§1)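 Compounds were mixed with 25 uM ATP, then with 3.5 uM di-C8 PI(4,5)P2 and His-tagged PI3K isoform (β 5.25 nM, δ 0.75 nM, γ 5 nM) at pH 7.00. After 30 min at room temperature, EDTA stopped the reaction and PIP3 was measured by HTRF over 1 h.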

[3] = target: T3, Human PI3K gamma (Homo sapiens, UniProt P48736); assay: Human PI3K gamma enzyme assay (HTRF); details: concentration not given, b1389 states 1.0 μM for PI3K δ and γ; for inhibition at 1 µM: read-out: p110 gamma Percent Inhibition
T3 construct: His (N); host or cells: SF9 insect cells (baculovirus)
T3 sequence (P48736 whole entry): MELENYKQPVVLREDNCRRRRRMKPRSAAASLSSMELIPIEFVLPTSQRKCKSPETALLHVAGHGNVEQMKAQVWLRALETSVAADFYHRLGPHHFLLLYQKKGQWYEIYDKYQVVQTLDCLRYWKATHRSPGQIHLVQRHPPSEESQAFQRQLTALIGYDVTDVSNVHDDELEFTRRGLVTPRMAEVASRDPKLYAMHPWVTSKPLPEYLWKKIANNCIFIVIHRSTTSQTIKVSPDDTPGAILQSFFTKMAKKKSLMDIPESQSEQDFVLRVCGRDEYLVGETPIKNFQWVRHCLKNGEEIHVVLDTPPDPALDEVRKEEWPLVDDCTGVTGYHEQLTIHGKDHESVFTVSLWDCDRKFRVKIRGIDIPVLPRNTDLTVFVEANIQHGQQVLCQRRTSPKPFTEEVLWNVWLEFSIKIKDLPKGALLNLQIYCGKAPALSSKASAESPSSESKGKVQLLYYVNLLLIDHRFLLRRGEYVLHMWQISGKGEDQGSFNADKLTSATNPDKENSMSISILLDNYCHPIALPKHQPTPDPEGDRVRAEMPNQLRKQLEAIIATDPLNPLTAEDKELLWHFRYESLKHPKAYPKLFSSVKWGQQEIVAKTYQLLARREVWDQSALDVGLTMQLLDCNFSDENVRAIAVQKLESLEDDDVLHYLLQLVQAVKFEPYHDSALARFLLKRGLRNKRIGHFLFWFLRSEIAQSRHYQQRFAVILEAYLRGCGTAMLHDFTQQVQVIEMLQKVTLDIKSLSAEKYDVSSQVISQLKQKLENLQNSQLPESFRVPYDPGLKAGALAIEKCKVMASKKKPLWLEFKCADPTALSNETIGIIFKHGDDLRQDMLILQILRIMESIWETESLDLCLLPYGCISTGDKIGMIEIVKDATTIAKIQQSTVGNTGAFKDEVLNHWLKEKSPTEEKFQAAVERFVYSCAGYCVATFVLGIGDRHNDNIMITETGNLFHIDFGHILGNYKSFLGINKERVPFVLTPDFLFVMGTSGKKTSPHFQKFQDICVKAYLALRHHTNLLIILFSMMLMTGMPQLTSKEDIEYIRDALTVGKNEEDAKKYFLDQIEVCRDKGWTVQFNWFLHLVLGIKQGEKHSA
How it was run: as §1

[4] = target: T4, Human PI3K beta (Homo sapiens, UniProt P42338); assay: Human PI3K beta enzyme assay (HTRF); details: concentration not given, b1387 states 1.1 μM for PI3K α and β; for inhibition at 1.1 µM: read-out: p110 beta Percent Inhibition
T4 construct: His (N); host or cells: SF9 insect cells (baculovirus)
T4 sequence (P42338 whole entry): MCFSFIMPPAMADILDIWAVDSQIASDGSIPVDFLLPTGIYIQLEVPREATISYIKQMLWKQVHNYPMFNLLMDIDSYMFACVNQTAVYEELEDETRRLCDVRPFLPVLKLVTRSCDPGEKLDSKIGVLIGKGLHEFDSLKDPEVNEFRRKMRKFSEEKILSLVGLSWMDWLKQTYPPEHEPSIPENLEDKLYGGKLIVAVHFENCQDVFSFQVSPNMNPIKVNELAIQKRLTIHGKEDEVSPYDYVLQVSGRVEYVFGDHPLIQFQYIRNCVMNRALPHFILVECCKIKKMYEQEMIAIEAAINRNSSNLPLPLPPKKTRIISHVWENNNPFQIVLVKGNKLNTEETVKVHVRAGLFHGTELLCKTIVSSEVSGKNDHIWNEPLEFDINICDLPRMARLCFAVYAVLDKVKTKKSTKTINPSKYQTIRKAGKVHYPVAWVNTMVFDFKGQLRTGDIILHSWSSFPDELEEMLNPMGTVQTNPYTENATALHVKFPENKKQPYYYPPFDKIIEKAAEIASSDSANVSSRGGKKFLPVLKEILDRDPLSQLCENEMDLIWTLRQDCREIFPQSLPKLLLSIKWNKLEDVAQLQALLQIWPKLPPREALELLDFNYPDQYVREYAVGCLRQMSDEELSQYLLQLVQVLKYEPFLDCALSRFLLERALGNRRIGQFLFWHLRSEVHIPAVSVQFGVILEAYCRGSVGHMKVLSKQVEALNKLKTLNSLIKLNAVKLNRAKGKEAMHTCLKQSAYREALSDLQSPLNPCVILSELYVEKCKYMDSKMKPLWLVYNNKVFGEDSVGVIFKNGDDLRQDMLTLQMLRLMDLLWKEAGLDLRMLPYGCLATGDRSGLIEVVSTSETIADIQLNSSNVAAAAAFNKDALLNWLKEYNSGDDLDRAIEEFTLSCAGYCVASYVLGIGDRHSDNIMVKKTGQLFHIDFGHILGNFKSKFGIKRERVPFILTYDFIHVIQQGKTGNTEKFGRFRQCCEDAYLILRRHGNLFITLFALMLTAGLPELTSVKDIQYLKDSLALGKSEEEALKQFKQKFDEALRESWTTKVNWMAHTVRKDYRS
T4 sequence (P27986 whole entry partner): as the sequence (P27986 whole entry partner) above
How it was run: as §1

T1 sequence (P42336 whole entry): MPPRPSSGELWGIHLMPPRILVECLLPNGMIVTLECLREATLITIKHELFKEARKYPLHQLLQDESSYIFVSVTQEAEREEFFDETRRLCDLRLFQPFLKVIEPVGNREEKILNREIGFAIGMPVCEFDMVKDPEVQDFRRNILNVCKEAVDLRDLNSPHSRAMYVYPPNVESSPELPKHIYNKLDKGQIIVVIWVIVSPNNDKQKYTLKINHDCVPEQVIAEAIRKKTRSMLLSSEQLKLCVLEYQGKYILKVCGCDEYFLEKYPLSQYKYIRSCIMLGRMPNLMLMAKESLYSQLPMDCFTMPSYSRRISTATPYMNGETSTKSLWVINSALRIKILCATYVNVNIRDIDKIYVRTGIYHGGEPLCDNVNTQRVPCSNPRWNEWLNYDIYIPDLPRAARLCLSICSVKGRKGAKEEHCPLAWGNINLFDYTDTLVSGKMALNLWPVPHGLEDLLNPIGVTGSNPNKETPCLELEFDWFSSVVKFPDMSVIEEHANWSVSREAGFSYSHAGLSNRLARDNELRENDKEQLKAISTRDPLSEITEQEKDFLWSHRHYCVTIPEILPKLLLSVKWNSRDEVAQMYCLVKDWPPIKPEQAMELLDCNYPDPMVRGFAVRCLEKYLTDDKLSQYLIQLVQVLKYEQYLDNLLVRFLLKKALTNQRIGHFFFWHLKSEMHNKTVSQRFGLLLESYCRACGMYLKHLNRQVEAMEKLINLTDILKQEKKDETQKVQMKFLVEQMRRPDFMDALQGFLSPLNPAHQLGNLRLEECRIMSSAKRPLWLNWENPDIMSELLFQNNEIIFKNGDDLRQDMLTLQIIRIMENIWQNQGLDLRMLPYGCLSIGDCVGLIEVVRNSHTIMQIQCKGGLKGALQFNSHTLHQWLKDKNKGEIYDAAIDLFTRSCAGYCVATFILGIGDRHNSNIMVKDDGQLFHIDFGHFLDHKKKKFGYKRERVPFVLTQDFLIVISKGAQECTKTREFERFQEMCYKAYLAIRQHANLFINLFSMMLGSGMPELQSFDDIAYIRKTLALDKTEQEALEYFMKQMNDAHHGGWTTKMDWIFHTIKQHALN
T1 sequence (P27986 whole entry partner): as the sequence (P27986 whole entry partner) above

Structure (SMILES)	inhibition at 1.1 µM [1] [%]	inhibition at 1 µM [2] [%]	inhibition at 1 µM [3] [%]	inhibition at 1.1 µM [4] [%]	p110 alpha Percent Inhibition [1] [%]	p110 gamma Percent Inhibition [3] [%]	p110 delta Percent Inhibition [2] [%]	p110 beta Percent Inhibition [4] [%]
O=C(NO)c1sc(N2CCOCC2)nc1Cc1ccc(Cl)c(Cl)c1 [Compound 298, 4-(3,4-dichlorobenzyl)-N-hydroxy-2-(morpholin-4-yl)-1,3-thiazole-5-carboxamide]	11	103	38	95				
Cn1c(Cc2nc(N3CCOCC3)sc2C(=O)O)cc2ccccc21 [Compound 302]	21	97	15	100				
O=C(O)c1sc(N2CCOCC2)nc1Cc1cc2cc(Br)ccc2s1 [Compound 303]	99	115	69	110				
CC(C)C(c1ccc(Cl)cc1)c1nc(N2CCOCC2)sc1C(=O)O (centres unmarked) [Compound 304]	6	32	7	25				
O=C(O)c1sc(N2CCOCC2)nc1Cc1ccc2ccc(F)cc2c1 [Compound 310]	34	105	64	106				
O=C(O)c1sc(N2CCOCC2)nc1Cc1cc2ccccc2cc1F [Compound 314]	42	104	42	109				
CS(=O)(=O)NC(c1ccc(Cl)cc1)c1c(C(=O)O)sc(N2CCOCC2)c1C#N (centres unmarked) [Compound 317]	20	70	29	77				
NC(=O)c1ccc2ccc(Cc3nc(N4CCOCC4)sc3C(=O)O)cc2c1 [Compound 318]	18	76	14	96				
O=C(O)c1sc(N2CCOCC2)nc1Cc1ccc2ccccc2c1F [Compound 319]	59	113	50	105				
O=C(O)c1sc(N2CCOCC2)c(F)c1Cc1ccc(Cl)c(Cl)c1 [Compound 320, 3-(3,4-dichlorobenzyl)-4-fluoro-5-morpholinothiophene-2-carboxylic acid]	16	97	35	94				
CC(c1ccc(Cl)c(Cl)c1)c1c(C(=O)O)sc(N2CCOCC2)c1C#N (centres unmarked) [Compound 321]	67		59				86	73
O=C(O)c1sc(N2CCOCC2)nc1Cc1ccc2cc[nH]c2c1 [Compound 328]	11	83	48	98				
CN(C)CCC(c1ccc(Cl)c(Cl)c1)c1c(C(=O)O)sc(N2CCOCC2)c1C#N (centres unmarked) [Compound 331, 4-cyano-3-[1-(3,4-dichlorophenyl)-3-(dimethylamino)propyl]-5-(morpholin-4-yl)thiophene-2-carboxylic acid]	37	107	51	105				
CC(c1ccc(Cl)c(Cl)c1)c1nc(N2CCOCC2)sc1C(=O)O (centres unmarked) [Compound 332]	11	91	27	77				
CC(c1ccc2ccccc2c1)c1c(C(=O)O)sc(N2CCOCC2)c1C#N (centres unmarked) [Compound 333]	63	74	55	95				
COc1ccc2ccc(Cc3nc(N4CCOCC4)sc3C(=O)O)cc2c1 [Compound 335]	54	107	31	111				
CN(C)C(c1ccc(Cl)c(Cl)c1)c1c(C(=O)O)sc(N2CCOCC2)c1C#N (centres unmarked) [Compound 336]					16	10	49	90
O=C(O)c1sc(N2CCOCC2)nc1Cc1cc(F)c2ccccc2c1 [Compound 338]	67	109	73	110				
O=C(O)c1sc(N2CCOCC2)nc1Cc1ccc2c(F)cccc2c1 [Compound 340]	48	104	59	113				

More lines, now with the values ahead:

inhibition at 1.1 µM [1] [%]	inhibition at 1 µM [2] [%]	inhibition at 1 µM [3] [%]	inhibition at 1.1 µM [4] [%]	p110 alpha Percent Inhibition [1] [%]	p110 gamma Percent Inhibition [3] [%]	p110 delta Percent Inhibition [2] [%]	p110 beta Percent Inhibition [4] [%]	Structure (SMILES)
37	107	14	79					O=C(O)c1sc(N2CCOCC2)c(C#Cc2ccccc2)c1Cc1ccc(Cl)c(Cl)c1 [Compound 296, 3-(3,4-dichlorobenzyl)-5-(morpholin-4-yl)-4-(phenylethynyl)thiophene-2-carboxylic acid]
26	77	33	104					N#Cc1c(N2CCOC(CO)C2)sc(C(=O)O)c1Cc1ccc2ccccc2c1 (centres unmarked) [Compound 297, 4-cyano-5-[2-(hydroxymethyl)morpholin-4-yl]-3-(2-naphthylmethyl)thiophene-2-carboxylic acid]
39	108	42	109					O=C(O)c1sc(N2CCOCC2)nc1Cc1ccc2cccc(F)c2c1 [Compound 299]
55	89	49	107					COc1ccc2cc(Cc3c(C(=O)O)sc(N4CCOCC4)c3C#N)ccc2c1 [Compound 301]
81	108	51	109					COCC(c1ccc2ccccc2c1)c1c(C(=O)O)sc(N2CCOCC2)c1C#N (centres unmarked) [Compound 306]
56	108	66	101					N#Cc1c(N2CCOCC2)sc(C(=O)O)c1Cc1ccc2ccncc2c1 [Compound 309, 4-cyano-3-(isoquinolin-7-ylmethyl)-5-(morpholin-4-yl)thiophene-2-carboxylic acid]
55	105	64	104					N#Cc1c(N2CCOCC2)sc(C(=O)O)c1Cc1ccc2sccc2c1 [Compound 311]
64	92	47	105					N#Cc1c(N2CCOCC2)sc(C(=O)O)c1Cc1cc2cc(F)ccc2[nH]1 [Compound 312]
	86		117	73	30			N#Cc1c(N2CCOCC2)sc(C(=O)O)c1C(CCO)c1ccc2ccccc2c1 (centres unmarked) [Compound 313]
97	114	75	110					N#Cc1c(N2CCOCC2)sc(C(=O)O)c1Cc1ccc2cc(F)ccc2c1 [Compound 315]
78	111	62	106					N#Cc1c(N2CCOCC2)sc(-c2nnn[nH]2)c1Cc1ccc2ccccc2c1 [Compound 316, 2-(morpholin-4-yl)-4-(2-naphthylmethyl)-5-(1H-tetrazol-5-yl)thiophene-3-carbonitrile]
			104	64	28	67		N#Cc1c(N2CCOCC2)sc(C(=O)O)c1C(CCF)c1ccc2ccccc2c1 (centres unmarked) [Compound 322]
66	97	46	61					CC(C)(C)[S+]([O-])NC(c1ccc2ccccc2c1)c1c(C(=O)O)sc(N2CCOCC2)c1C#N (centres unmarked) [Compound 323]
17	89	22	89					N#Cc1ccc2ccc(Cc3nc(N4CCOCC4)sc3C(=O)O)cc2c1 [Compound 325]
	96	56	108	79				CC(c1ccc2cc(F)ccc2c1)c1c(C(=O)O)sc(N2CCOCC2)c1C#N (centres unmarked) [Compound 326]
34	109	22	109					N#Cc1c(N2CCOCC2)sc(C(N)=O)c1Cc1ccc2ccccc2c1 [Compound 327, 4-cyano-5-(morpholin-4-yl)-3-(2-naphthylmethyl)thiophene-2-carboxamide]
39	80	29	112					NS(=O)(=O)c1sc(N2CCOCC2)nc1Cc1ccc2ccccc2c1 [Compound 329, 2-morpholino-4-(naphthalen-2-ylmethyl)thiazole-5-sulfonamide]
85	106	61	109					Cn1c(Cc2c(C(=O)O)sc(N3CCOCC3)c2C#N)cc2ccccc21 [Compound 330]
21	101	12	103					NC(=O)c1sc(N2CCOCC2)nc1Cc1ccc2ccccc2c1 [Compound 334]
